Test results taken from patent publication US12421220B2, “Bicyclic-substituted glutarimide cereblon binders” (C4 THERAPEUTICS, INC., priority 2022, dated 2025).

Molecular target: T1, BRD4 (Homo sapiens, UniProt O60885)
T1 construct: endogenously expressing BRD4 with HiBiT fusion tag via CRISPR; endogenous in cells; host or cells: 293T.92 (BRD4-HiBiT) cells, a CRISPR knock-in made from 293T
Assay: BRD4 HiBiT degradation assay in 293T.92 (BRD4-HiBiT) cells
Format: cell-based
Settings: 293T.92 cells, 24.0 hours
Text: Example 3: BRD4 HiBiT Method
Dulbecco's modified Eagle medium (DMEM) without phenol red and fetal bovine serum (FBS) were purchased from Gibco (Grand Island, NY, USA). Nano-Glo® HiBiT Lytic Assay System was purchased from Promega (Madison, WI, USA). 293T.92 (BRD4-HiBiT) cell line, endogenously expressing BRD4 with HiBiT fusion tag via CRISPR was made internally from the 293T human cell line acquired from American Type Culture Collection (Rockville, MD, USA). Cell culture flasks and 384-well microplates were acquired from VWR (Radnor, PA, USA) or Corning (Corning, NY, USA).
BRD4 degradation was determined based on quantification of luminescent signal using Nano-Glo® HiBiT Lytic Assay kit. Test compounds were added to the 384-well plate from a top concentration of […] with 11 points, half log titration in duplicates. 293T.92 cells were added into 384-well plates at a cell density of 15000 cells per well. The plates were kept at 37° C. with 5% CO2 for […]. The cells treated in the absence of the test compound were the negative control and the cells without Nano-Glo® HiBiT Lytic reagent were the positive control. After 24-hour incubation, Nano-Glo® HiBiT Lytic Assay reagents were added to the cells. Luminescence was acquired on EnVision™ Multilabel Reader (PerkinElmer, Santa Clara, CA, USA).

DC50: < 1000 nM | Emax: < 30%
SMILES: COC(=O)N1c2ccc3c(nc(Cc4ccccc4)n3[C@H]3CCC[C@H](C(=O)N4CCC(c5ccc6c(c5)OCCN6C5CCC(=O)NC5=O)CC4)C3)c2CC[C@@H]1C (stereo partly drawn) [Compound 32-14, methyl (7S)-2-benzyl-7-methyl-3-[(1S,3S)-3-[4-[4-(2,6-dioxo-3-piperidyl)-2,3-dihydro-1,4-benzoxazin-7-yl]piperidine-i-carbonyl]cyclohexyl]-8,9-dihydro-7H-imidazo[4,5-f]quinoline-6-carboxylate]
